# Experimental data published in US20230192683A1, “FUSED RING COMPOUNDS, PREPARATION METHOD THEREFOR, PHARMACEUTICAL COMPOSITIONS AND USE THEREOF” (priority 2020, published 2023).
# Marks after values point to notes of the source that are not given here.
# How the values were obtained:
# [1] = pharmacokinetic evaluation in rats after oral and intravenous administration; assay type: in vivo; conditions: Sprague-Dawley, rat, plasma, male SD rats, oral 10.0 mg/kg, intravenous 1.0 mg/kg, route and unit inferred
# Method: Using rats as test animals, an LC/MS/MS method was used to determine the drug concentrations in plasma at different times after oral and intravenous administration of Compound 1a and Compound 14 in the rats. The pharmacokinetic behavior of the compounds of the present invention in rats was studied, and pharmacokinetic characteristics thereof were evaluated.
# For each compound, 6 healthy adult SD (Sprague-Dawley) rats, male, were divided into oral and intravenous administration groups, 3 rats in each group, purchased from Shanghai SIPPR/BK Laboratory Animal Co., Ltd., animal production license number: SCXK (Shanghai) 2008-0016.
# A specific amount of the drug was weighed and dissolved in 5% dimethylacetamide (DMA) + 5% polyethylene glycol-15 hydroxystearate (solutol) + 90% saline solution to prepare a 0.2 mg/mL solution.
# The SD rats were fasted overnight and were administered orally and intravenously. The oral dose was 10.0 mg/kg, and the intravenous dose was 1.0 mg/kg.
# Compound 1a and Compound 14 were administered orally and intravenously to the rats. At 0.083, 0.25, 0.5, 1, 2, 4, 8, and 24 hours after administration, 0.2 mL of blood was collected from the submandibular vein or other suitable blood vessels, placed in K2-EDTA tubes, and then stored on ice. Within one hour, the plasma was separated by centrifugation at 6,800 g for 6 minutes at 2-8° C., and stored at -80° C. for LC/MS/MS analysis. The rats were fed 4 hours after administration.
# [2] = tested on: rat CFA pain model; assay: single-dose pharmacodynamic study in rat CFA pain model (Von Frey PWT); assay type: in vivo
# Method: Each male SD rat (7-8 weeks old) was injected with 50 microliters of CFA in the center of the left hind paw. A PWT basal value test was conducted 24 hours after modeling, and the drugs were administered after randomization.
# There were 8 animals in each group, and the animals were weighed and administered according to Table 4.
# For all groups of animals, paw withdrawal thresholds (PWTs) of the animals were tested using Von Frey after 1 h and 3 h of single administration.
compound,measurement,setting,value
"CSc1cccc2c(C(C)(C)NC(=O)[C@H]3[C@@H]4CNC[C@@H]43)nn(C)c12 [Compound 14, (1R,5S,6R)-N-(2-(1-Methyl-7-(Methylthio)-1H-Indazol-3-yl)Prop-2-yl)-3-Azabicyclo[3.1.0]Hexane-6-Carboxamide]",half-life,[1],2.58 ± 0.5 h
same,Vd,[1]; read-out: Apparent volume of distribution,7.09 ± 1.08 L/kg
same,clearance,[1]; read-out: Clearance rate,48.7 ± 5.01 mL/min/kg
same,"Mechanical allodynia test (PWT (g), mean) Baseline","[2]; 10 mg/kg I.P. group, baseline 24 h after CFA, before administration",3.566 g
same,"Mechanical allodynia test (PWT (g), mean) 1 hour","[2]; 10 mg/kg I.P., 1 hour after single administration",4.628 g
same,efficacy compared with Control Compound A (in words),"[2]; 10 mg/kg I.P., 3 hours after administration",significantly better than that of Control Compound A
same,"Mechanical allodynia test (PWT (g), mean) 3 hours","[2]; 10 mg/kg I.P., 3 hours after single administration",8.886 **** # g
same,inhibition of CFA-induced mechanical allodynia (in words),"[2]; 10 mg/kg I.P., single administration, FIG. 1",inhibited CFA-induced mechanical allodynia
